Assays:
D(2) dopamine receptor [1] = molecular target: T1, D(2) dopamine receptor (Homo sapiens, UniProt P14416); experiment: Displacement of [3H]-N-methylspiperone from human dopmaine D2S receptor expressed in CHO cell membrane assessed as inhibition constant by competition binding assay; format: cell membranes
D(3) dopamine receptor = D(3) dopamine receptor (Homo sapiens, UniProt P35462); experiment: Displacement of [3H]-N-methylspiperone from human dopmaine D3 receptor expressed in HEK293T cells assessed as inhibition constant by competition binding assay; format: cell-based
D(2) dopamine receptor [2] = molecular target: T1, D(2) dopamine receptor; experiment: Displacement of [3H]-N-methylspiperone from human dopmaine D2L receptor expressed in CHO cell membrane assessed as inhibition constant by competition binding assay; format: cell membranes
D(4) dopamine receptor [3] = molecular target: T2, D(4) dopamine receptor (Homo sapiens, UniProt P21917); experiment: Displacement of [3H]-N-methylspiperone from human dopmaine D4.4 receptor expressed in HEK293T cells assessed as inhibition constant by competition binding assay; format: cell-based
T2 sequence (P21917 whole entry): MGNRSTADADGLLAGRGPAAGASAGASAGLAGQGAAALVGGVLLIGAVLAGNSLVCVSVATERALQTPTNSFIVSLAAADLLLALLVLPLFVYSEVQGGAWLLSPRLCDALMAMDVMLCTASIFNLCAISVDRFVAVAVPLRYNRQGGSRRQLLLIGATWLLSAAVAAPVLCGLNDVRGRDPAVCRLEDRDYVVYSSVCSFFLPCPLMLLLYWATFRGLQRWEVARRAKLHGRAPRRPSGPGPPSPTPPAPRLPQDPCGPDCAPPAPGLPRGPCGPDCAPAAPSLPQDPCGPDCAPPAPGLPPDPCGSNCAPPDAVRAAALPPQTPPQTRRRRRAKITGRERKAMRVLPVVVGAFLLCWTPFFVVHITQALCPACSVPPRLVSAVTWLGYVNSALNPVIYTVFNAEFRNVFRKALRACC

[4] = molecular target: 5-hydroxytryptamine receptor 2A (Homo sapiens, UniProt P28223); experiment: Displacement of [3H]ketanserin from 5-HT2A receptor (unknown origin) expressed in HEK293T cells assessed as inhibition constant by competition binding assay; format: cell-based
[5] = Retention time of the compound by HPLC(UV) method; format: physicochemical
[6] = Permeability of the compound across basal to apical membrane in human Caco-2 cells at 10 uM incubated for 4 hrs by HPLC(UV) analysis; format: ADME, cell-based; conditions: caco-2, 4 h
[7] = Metabolic stability in pooled rat liver microsomes assessed as parent compound remaining at 40 uM measured after 60 mins in the presence of NADPH by HPLC(UV) analysis; format: ADME, Microsome; conditions: read-out: Stability
[8] = Drug metabolism in pooled rat liver microsomes assessed as hydroxylation mediated metabolite formation at 40 uM measured upto 60 mins in the presence of NADPH by HPLC(UV) analysis; format: ADME, Microsome; conditions: 1 h
[9] = molecular target: T3, Alpha-2A adrenergic receptor (Homo sapiens, UniProt P08913); experiment: Displacement of [3H]RX821002 from adrenergic alpha 2A receptor (unknown origin) expressed in HEK293T cells assessed as inhibition constant by competition binding assay; format: cell-based
T3 sequence (P08913 whole entry): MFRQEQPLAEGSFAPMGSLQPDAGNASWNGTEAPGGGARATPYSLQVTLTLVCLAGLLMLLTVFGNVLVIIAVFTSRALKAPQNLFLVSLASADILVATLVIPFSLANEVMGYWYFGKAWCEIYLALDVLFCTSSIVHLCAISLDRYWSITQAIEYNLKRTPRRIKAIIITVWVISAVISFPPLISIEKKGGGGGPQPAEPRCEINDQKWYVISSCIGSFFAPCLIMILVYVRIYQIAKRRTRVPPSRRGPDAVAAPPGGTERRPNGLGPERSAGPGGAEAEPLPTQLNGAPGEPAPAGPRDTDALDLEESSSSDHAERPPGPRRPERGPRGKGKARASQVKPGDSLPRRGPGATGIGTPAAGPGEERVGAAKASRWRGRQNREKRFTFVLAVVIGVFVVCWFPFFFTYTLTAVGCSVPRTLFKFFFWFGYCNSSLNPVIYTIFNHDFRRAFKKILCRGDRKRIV

[10] = Permeability of the compound across basal to apical membrane in human Caco-2 cells at 10 uM incubated for 4 hrs in the presence of valspodar by HPLC(UV) analysis; format: ADME, cell-based; conditions: caco-2, 4 h
D(1A) dopamine receptor = D(1A) dopamine receptor (Homo sapiens, UniProt P21728); experiment: Displacement of [3H]SCH23390 from human dopamine D1 receptor expressed in HEK293T cells assessed as inhibition constant by competition binding assay; format: cell-based
[11] = molecular target: T4, Alpha-1A adrenergic receptor (Homo sapiens, UniProt P35348); experiment: Displacement of [3H]prazosin from adrenergic alpha 1A receptor (unknown origin) expressed in HEK293T cells assessed as inhibition constant by competition binding assay; format: cell-based
T4 sequence (P35348 whole entry): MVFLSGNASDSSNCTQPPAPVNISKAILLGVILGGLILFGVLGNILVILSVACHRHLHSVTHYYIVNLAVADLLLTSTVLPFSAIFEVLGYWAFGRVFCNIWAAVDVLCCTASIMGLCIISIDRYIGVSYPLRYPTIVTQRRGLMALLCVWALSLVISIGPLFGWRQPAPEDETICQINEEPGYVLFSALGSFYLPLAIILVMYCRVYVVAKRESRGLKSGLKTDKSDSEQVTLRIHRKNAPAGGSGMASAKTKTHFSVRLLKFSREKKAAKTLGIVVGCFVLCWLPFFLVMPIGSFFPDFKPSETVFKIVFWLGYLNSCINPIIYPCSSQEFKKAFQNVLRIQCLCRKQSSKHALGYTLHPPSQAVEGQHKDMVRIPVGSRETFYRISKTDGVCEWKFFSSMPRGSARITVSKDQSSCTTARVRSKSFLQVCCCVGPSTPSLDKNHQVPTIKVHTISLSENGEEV

D(1B) dopamine receptor = D(1B) dopamine receptor (Homo sapiens, UniProt P21918); experiment: Displacement of [3H]SCH23390 from human dopamine D5 receptor expressed in HEK293T cells assessed as inhibition constant by competition binding assay; format: cell-based
[12] = Drug metabolism in pooled rat liver microsomes assessed as O-demethylation mediated metabolite formation at 40 uM measured upto 60 mins in the presence of NADPH by HPLC(UV) analysis; format: ADME, Microsome; conditions: 1 h
[13] = molecular target: T5, 5-hydroxytryptamine receptor 1A (Homo sapiens, UniProt P08908); experiment: Displacement of [3H][…] from 5-HT1A receptor (unknown origin) expressed in HEK293T cells assessed as inhibition constant by competition binding assay; format: cell-based
T5 sequence (P08908 whole entry): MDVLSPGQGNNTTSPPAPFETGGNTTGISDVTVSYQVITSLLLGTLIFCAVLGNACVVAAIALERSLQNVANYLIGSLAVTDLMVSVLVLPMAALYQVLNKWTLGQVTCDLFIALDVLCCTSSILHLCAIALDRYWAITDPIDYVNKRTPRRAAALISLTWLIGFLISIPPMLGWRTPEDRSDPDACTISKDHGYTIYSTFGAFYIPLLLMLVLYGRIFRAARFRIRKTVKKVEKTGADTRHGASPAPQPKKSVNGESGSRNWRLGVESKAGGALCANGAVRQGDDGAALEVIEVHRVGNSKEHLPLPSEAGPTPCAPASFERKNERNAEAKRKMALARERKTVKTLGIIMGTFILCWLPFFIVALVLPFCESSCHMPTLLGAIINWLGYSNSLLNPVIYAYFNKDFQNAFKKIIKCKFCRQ

D(4) dopamine receptor [14] = molecular target: T2, D(4) dopamine receptor; experiment: Agonist activity at human dopamine D4 receptor transfected in HEK293T cells co-transfected with Galpha-qi assessed as activation of GPCR-mediated receptor signaling incubated for 90 mins by IP-one HTRF assay; format: functional, cell-based
D(4) dopamine receptor [15] = molecular target: T2, D(4) dopamine receptor; experiment: Agonist activity at PKA-tagged human dopamine D4 receptor transfected in HEK293T cells expressing (EA)-beta-arrestin assessed as beta-arrestin recruitment incubated for 3 hrs by chemiluminescence based PathHunter assay; format: functional, cell-based
D(4) dopamine receptor [16] = molecular target: T2, D(4) dopamine receptor; experiment: Agonist activity at PKA-tagged human dopamine D4 receptor transfected in HEK293T cells expressing (EA)-beta-arrestin and GRK2 assessed as beta-arrestin recruitment incubated for 3 hrs by chemiluminescence based PathHunter assay; format: functional, cell-based

Sequence of D(1B) dopamine receptor (P21918 whole entry): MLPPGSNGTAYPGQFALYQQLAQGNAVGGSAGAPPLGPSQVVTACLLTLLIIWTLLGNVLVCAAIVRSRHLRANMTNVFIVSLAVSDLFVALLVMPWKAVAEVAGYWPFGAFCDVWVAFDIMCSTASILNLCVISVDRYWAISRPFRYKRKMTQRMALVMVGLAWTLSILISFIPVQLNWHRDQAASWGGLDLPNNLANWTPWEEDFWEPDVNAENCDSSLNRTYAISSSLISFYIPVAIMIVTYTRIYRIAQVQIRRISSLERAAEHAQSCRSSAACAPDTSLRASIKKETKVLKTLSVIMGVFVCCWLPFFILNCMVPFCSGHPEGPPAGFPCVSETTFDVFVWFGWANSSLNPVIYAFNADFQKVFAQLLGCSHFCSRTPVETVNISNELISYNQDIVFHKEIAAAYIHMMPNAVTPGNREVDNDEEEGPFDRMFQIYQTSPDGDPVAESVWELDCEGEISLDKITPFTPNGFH
T1 sequence (P14416 whole entry): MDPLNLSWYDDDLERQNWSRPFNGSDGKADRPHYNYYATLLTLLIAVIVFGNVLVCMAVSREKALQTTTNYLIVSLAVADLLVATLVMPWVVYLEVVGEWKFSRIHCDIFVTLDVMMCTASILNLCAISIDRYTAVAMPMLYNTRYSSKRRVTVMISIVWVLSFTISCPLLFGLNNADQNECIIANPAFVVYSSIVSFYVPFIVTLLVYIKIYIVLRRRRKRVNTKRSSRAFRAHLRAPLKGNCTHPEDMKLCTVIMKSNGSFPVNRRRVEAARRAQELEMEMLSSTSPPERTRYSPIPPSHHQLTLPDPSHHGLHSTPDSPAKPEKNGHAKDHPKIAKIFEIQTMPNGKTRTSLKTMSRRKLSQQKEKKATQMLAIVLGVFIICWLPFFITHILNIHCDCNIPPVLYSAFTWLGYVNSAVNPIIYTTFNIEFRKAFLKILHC
Sequence of 5-hydroxytryptamine receptor 2A (P28223 whole entry): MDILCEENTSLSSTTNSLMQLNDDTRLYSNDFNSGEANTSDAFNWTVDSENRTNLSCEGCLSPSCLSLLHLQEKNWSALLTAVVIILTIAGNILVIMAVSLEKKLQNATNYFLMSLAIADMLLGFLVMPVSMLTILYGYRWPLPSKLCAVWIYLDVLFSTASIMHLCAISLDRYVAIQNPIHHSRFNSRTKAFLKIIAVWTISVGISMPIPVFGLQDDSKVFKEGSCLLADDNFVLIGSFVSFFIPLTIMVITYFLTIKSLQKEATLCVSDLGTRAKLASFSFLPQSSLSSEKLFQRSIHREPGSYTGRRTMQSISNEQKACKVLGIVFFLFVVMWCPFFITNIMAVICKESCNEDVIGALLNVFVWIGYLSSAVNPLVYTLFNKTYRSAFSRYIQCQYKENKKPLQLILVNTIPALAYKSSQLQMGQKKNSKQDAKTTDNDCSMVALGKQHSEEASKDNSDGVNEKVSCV
Sequence of D(3) dopamine receptor (P35462 whole entry): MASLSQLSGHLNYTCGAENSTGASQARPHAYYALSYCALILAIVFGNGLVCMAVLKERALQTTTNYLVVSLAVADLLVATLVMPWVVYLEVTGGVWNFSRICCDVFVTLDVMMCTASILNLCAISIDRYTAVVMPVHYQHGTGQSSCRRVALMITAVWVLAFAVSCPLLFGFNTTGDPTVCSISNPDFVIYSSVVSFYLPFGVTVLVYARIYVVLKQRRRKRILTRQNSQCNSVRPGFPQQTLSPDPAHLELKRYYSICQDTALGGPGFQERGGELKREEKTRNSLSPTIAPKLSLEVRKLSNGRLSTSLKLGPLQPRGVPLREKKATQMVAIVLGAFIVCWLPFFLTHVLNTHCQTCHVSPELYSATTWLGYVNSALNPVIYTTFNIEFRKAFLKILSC
Sequence of D(1A) dopamine receptor (P21728 whole entry): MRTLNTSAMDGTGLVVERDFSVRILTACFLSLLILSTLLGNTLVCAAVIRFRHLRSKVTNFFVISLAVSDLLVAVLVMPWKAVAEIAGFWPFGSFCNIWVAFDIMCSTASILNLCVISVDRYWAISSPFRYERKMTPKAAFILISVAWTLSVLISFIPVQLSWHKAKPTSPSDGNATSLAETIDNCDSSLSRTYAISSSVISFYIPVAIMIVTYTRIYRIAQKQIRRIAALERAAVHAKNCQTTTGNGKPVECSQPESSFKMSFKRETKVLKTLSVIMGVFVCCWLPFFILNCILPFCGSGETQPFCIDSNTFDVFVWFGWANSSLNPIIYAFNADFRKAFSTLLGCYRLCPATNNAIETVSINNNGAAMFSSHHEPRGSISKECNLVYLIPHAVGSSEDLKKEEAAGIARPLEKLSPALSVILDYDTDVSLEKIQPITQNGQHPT

Row | SMILES | Ki (D(2) dopamine receptor [1]) | Ki (D(3) dopamine receptor) | Ki (D(2) dopamine receptor [2]) | Ki (D(4) dopamine receptor [3]) | other results
1 | COc1ccccc1N1CCN(CCCNC(=O)NCc2cc(F)ccc2-c2ccccc2)CC1 | 38 nM | 150 nM | 88 nM | 4.6 nM | –
2 | COc1ccccc1N1CCN(CCCNC(=O)NCc2ccccc2-c2ccc(C(C)C)cc2)CC1 | 170 nM | 190 nM | 400 nM | 36 nM | –
3 | COc1ccccc1N1CCN(CCCNC(=O)Nc2ccccc2-c2cccc(F)c2)CC1 | 110 nM | 23 nM | 170 nM | 4 nM | –
4 | COc1ccccc1N1CCN(CCCNC(=O)Nc2ccc(-c3ccccc3)cc2)CC1 | 130 nM | 22 nM | 340 nM | 110 nM | –
5 | COc1ccccc1N1CCN(CCCNC(=O)NCc2ccccc2-c2ccccc2)CC1 | 120 nM | 270 nM | 190 nM | – | Ki [4]: 140 nM; Retention_time [5]: 4.09 min; permeability [6]: 15.7%; remaining at 1 h, 40 µM [7]: 56%; Drug metabolism [8]: Metabolite_Detected; Ki [9]: 120 nM; permeability [10]: 10.5%; Ki (D(1A) dopamine receptor): 480 nM; Ki [11]: 11 nM; Ki (D(1B) dopamine receptor): 3300 nM; Drug metabolism [12]: Metabolite_Detected; Ki [13]: 62 nM
6 | COc1ccccc1N1CCN(CCCNC(=O)Nc2cccc(-c3ccccc3)c2)CC1 | 18 nM | 26 nM | 46 nM | 7.2 nM | –
7 | COc1ccccc1N1CCN(CCCNC(=O)NCc2cccc(F)c2-c2ccccc2)CC1 | – | 62 nM | – | 1.1 nM | –
8 | COc1ccccc1N1CCN(CCCNC(=O)Nc2ccccc2-c2ccccc2)CC1 | 100 nM | 57 nM | 210 nM | – | Ki [4]: 960 nM; Retention_time [5]: 3.91 min; permeability [6]: 22.2%; remaining at 1 h, 40 µM [7]: 57%; Drug metabolism [8]: Metabolite_Detected; Ki [9]: 28 nM; permeability [10]: 18.3%; Ki (D(1A) dopamine receptor): 730 nM; Ki [11]: 7.1 nM; Ki (D(1B) dopamine receptor): 4500 nM; Drug metabolism [12]: Metabolite_Detected; Ki [13]: 25 nM
9 | COc1ccccc1N1CCN(CCCNC(=O)Nc2ccccc2-c2ccc(C(C)(C)C)cc2)CC1 | 78 nM | 70 nM | 120 nM | 30 nM | –
10 | COc1cccc(-c2ccccc2CNC(=O)NCCCN2CCN(c3ccccc3OC)CC2)c1 | 88 nM | 75 nM | 220 nM | 13 nM | –
11 | COc1ccccc1N1CCN(CCCNC(=O)NCc2ccccc2-c2ccc(-c3ccccc3)cc2)CC1 | 290 nM | 370 nM | 460 nM | 15 nM | –
12 | COc1ccc(-c2ccccc2)c(CNC(=O)NCCCN2CCN(c3ccccc3OC)CC2)c1 | 78 nM | 120 nM | 130 nM | – | Ki [4]: 120 nM; Ki [9]: 200 nM; Ki (D(1A) dopamine receptor): 280 nM; Ki [11]: 8.9 nM; Ki (D(1B) dopamine receptor): 3000 nM; Ki [13]: 27 nM
13 | COc1ccccc1N1CCN(CCCNC(=O)NN(Cc2ccccc2)c2ccc(F)cc2)CC1 | – | – | – | – | EC50 (D(4) dopamine receptor [14]): 41 nM; EC50 (D(4) dopamine receptor [15]): 470 nM; EC50 (D(4) dopamine receptor [16]): 410 nM
